Test results as given in patent US10077261B2, “Imidazolin-5-one derivative useful as FASN inhibitors for the treatment of cancer” (Janssen Pharmaceutica NV, priority 2012, dated 2018).
pIC50: −log10 of the molar value.

Key:
[1] = tested on: PC-3M-Luc-C6 prostate cells; assay: In vitro PC-3M-Luc-C6 prostate cell proliferation assay in lipid reduced medium; type: cell-based; conditions: 96 h, read-out: pIC50 PC-3M-Luc-C6 prostate cell (converted)
[2] = tested on: LNCaP-Vancouver prostate cells; assay: In vitro LNCaP Vancouver prostate cell proliferation assay in lipid reduced medium; type: cell-based; conditions: read-out: pIC50 LNCaP_Vancouver prostate cell (converted)
A2780 ovarian cells [3] = assay: A2780 ovarian cell proliferation assay in lipid reduced medium, with palmitate (MTT); type: cell-based; conditions: Homo sapiens, A2780, 96 h; read-out: pIC50 A2780 Ovarian Cell, With Palmitate (converted)
Method in brief: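 In this palmitate-supplemented format, compound dilutions (30 μM down to 0.01 μM) are added to cells in lipid-reduced serum with 25 μM palmitate, 0.2% fatty-acid-free BSA and 0.25% ethanol. After four days (96 h) MTT absorbance at 544 nm is recorded and fitted by minimum sum of squares.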

[4] = biological target: T1, hFASN enzyme (full length) (Homo sapiens, UniProt P49327); assay: Fatty Acid Synthase (FASN) inhibition scintillation proximity assay; type: biochemical; conditions: for inhibition at 10 µM: read-out: Human FASN % inhibition @ 10 μM, 10 μM test compound; for IC50: read-out: Human FASN pIC50 (converted)
T1 construct: 10 μL hFASN enzyme (full length, 300 ng, purified in house); made in house
Method in brief: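 Scintillation proximity format: in-house full-length enzyme, 300 ng per well, pH 7.5 phosphate/DTT buffer, ³H-acetyl-CoA and malonyl-CoA. Emission counted on LEADseeker at 610 nm at least 24 h after stopping.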

[5] = biological target: Fatty Acid Synthase Keto-reductase Domain (FASN KR) (Homo sapiens, UniProt P49327); assay: Fatty Acid Synthase keto-reductase domain (FASN KR) inhibition, NADPH oxidation at 340 nm
Procedure: After 20 minutes incubation at room temperature the plate was measured again (T2).
The decrease in absorbance was calculated as (Absorbance before incubation T1)−(Absorbance following incubation T2).
A plot of Controlmin versus test compound concentration was fitted to a 4-parameter logistic curve using a non-linear least squares regression method.

A2780 ovarian cells [6] = assay: A2780 ovarian cell proliferation assay in lipid reduced medium, without palmitate (MTT); type: cell-based; conditions: Homo sapiens, A2780, 96 h; read-out: pIC50 A2780 Ovarian Cell, Without Palmitate (converted)

T1 sequence (P49327 whole entry): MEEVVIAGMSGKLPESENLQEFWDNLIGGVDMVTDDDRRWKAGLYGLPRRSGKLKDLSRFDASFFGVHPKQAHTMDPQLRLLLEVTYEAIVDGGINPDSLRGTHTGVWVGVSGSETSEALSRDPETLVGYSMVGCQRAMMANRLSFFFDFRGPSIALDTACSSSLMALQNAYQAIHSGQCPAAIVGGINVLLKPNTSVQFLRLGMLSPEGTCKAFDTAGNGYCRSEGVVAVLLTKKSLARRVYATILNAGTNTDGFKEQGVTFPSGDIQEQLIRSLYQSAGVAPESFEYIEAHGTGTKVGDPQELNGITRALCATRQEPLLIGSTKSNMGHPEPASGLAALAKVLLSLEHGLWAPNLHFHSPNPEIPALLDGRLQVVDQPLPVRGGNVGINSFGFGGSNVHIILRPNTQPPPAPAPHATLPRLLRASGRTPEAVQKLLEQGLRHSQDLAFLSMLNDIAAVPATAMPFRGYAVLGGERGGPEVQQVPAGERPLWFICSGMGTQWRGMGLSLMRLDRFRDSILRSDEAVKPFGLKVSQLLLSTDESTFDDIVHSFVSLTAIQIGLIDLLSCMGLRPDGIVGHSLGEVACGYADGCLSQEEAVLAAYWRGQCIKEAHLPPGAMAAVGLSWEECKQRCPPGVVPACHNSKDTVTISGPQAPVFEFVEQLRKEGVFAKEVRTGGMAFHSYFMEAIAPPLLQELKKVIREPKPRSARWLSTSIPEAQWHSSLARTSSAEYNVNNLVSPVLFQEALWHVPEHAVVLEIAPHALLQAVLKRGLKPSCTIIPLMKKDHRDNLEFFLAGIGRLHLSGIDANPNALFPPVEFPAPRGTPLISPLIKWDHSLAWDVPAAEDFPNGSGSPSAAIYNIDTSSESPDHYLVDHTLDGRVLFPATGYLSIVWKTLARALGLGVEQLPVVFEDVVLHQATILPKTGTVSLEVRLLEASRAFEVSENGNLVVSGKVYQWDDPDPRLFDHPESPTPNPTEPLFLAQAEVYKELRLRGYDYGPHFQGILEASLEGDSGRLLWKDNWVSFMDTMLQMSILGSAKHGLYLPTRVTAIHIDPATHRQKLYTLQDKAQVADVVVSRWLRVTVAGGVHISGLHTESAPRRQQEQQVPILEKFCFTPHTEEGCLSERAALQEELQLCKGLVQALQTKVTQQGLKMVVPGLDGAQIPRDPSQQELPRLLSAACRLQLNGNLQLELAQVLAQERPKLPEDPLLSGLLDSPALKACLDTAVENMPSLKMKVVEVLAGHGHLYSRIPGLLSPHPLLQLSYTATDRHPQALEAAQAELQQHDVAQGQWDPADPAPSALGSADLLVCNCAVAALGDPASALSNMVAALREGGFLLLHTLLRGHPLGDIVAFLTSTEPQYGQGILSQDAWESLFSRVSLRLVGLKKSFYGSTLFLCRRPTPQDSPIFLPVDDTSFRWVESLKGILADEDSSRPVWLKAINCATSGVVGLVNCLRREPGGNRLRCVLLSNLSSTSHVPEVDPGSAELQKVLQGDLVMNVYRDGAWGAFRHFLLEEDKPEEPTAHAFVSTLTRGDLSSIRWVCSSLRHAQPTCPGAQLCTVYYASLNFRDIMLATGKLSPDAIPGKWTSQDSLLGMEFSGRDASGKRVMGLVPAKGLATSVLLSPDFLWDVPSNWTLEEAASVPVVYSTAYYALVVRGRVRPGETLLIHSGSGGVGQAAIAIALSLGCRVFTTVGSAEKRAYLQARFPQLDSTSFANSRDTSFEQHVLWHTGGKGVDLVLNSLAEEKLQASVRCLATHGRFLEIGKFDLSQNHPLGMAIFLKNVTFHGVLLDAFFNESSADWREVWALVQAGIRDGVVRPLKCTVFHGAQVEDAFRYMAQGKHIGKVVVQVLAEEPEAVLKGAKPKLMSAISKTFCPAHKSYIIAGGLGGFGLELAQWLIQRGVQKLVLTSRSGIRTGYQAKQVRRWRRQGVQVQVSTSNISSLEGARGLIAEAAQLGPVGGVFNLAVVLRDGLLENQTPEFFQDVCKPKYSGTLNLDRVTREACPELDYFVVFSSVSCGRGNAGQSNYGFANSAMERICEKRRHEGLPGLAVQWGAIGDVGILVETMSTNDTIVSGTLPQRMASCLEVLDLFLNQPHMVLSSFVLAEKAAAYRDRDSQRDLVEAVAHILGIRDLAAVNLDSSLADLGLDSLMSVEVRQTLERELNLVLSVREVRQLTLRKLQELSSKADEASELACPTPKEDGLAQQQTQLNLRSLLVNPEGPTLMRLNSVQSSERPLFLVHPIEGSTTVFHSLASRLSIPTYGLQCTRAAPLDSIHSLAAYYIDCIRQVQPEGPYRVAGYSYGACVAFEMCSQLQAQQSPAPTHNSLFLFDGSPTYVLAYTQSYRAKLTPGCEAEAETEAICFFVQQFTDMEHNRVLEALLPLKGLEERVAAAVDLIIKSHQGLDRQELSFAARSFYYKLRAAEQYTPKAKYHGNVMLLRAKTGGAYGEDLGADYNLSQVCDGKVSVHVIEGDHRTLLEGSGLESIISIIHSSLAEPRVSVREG
Fatty Acid Synthase Keto-reductase Domain (FASN KR), sequence (P49327 whole entry, the tested form may be a part): as the sequence (P49327 whole entry) above

IC50 [1] [µM]	IC50 [2] [µM]	IC50 (A2780 ovarian cells [3]) [µM]	inhibition at 10 µM [4] [%]	IC50 [4] [µM]	pIC50 [5]	IC50 (A2780 ovarian cells [6]) [µM]	Structure (SMILES)
0.0977	0.417	> 10	104	0.0562	6.78	~0.0741	O=C(C1CC1)N1CC(CN2C(=O)C3(CC3)N=C2c2ccc(-c3nc4ccc(F)cc4s3)cc2F)C1 [compound 271, 6-((1-(cyclopropanecarbonyl)azetidin-3-yl)methyl)-5-(2-fluoro-4-(6-fluorobenzo[d]thiazol-2-yl)phenyl)-4,6-diazaspiro[2.4]hept-4-en-7-one]
0.0107	0.049	> 10	105	0.0186	~7.41	~0.00724	Cc1cc(-c2ccc3cc(C#N)ccc3c2)ccc1C1=NC2(CC2)C(=O)N1CC1CN(C(=O)C2(O)CC2)C1 [compound 272, 6-(4-(6-((1-(1-hydroxycyclopropanecarbonyl)azetidin-3-yl)methyl)-7-oxo-4,6-diazaspiro[2.4]hept-4-en-5-yl)-3-methylphenyl)-2-naphthonitrile]
0.0676	0.355	7.94	102	0.0427	6.84	~0.0209	Cc1cc(-c2ccc3cc(C#N)ccc3c2)ccc1C1=NC2(CC2)C(=O)N1CC1CN(C(=O)C2(F)CC2)C1 [compound 273, 6-(4-(6-((1-(1-fluorocyclopropanecarbonyl)azetidin-3-yl)methyl)-7-oxo-4,6-diazaspiro[2.4]hept-4-en-5-yl)-3-methylphenyl)-2-naphthonitrile]
0.0468	0.339	7.24	101	0.0501	7.00	~0.024	O=C(C1CC1)N1CC(CN2C(=O)C3(CC3)N=C2c2ccc(-c3nc4ccc(Cl)cc4s3)cc2F)C1 [compound 274, 5-(4-(6-chlorobenzo[d]thiazol-2-yl)-2-fluorophenyl)-6-((1-(cyclopropanecarbonyl)azetidin-3-yl)methyl)-4,6-diazaspiro[2.4]hept-4-en-7-one]
~1.7	~2.14	> 10	106	0.0871	6.65	~2.09	Cc1cc(-c2ccc3oc(C)c(C)c3c2)ccc1C1=NC2(CC2)C(=O)N1C[C@@H]1CCN(C(=O)C2CC2)C1 [compound 282, (R)-6-((1-(cyclopropanecarbonyl)pyrrolidin-3-yl)methyl)-5-(4-(2,3-dimethylbenzofuran-5-yl)-2-methylphenyl)-4,6-diazaspiro[2.4]hept-4-en-7-one]
0.0182	0.038	> 10	106	0.0257	7.51	~0.0234	Cc1cc(-c2ccc3[nH]ccc3c2)ccc1C1=NC2(CC2)C(=O)N1C[C@@H]1CCN(C(=O)C2CC2)C1 [compound 284, (R)-5-(4-(1H-indol-5-yl)-2-methylphenyl)-6-((1-(cyclopropanecarbonyl)pyrrolidin-3-yl)methyl)-4,6-diazaspiro[2.4]hept-4-en-7-one]
0.0251	0.123	> 10	103	0.0437	7.22	~0.0214	Cc1cc(-c2ccc3[nH]ncc3c2)ccc1C1=NC2(CC2)C(=O)N1C[C@@H]1CCN(C(=O)C2CC2)C1 [compound 286, (R)-5-(4-(1H-indazol-5-yl)-2-methylphenyl)-6-((1-(cyclopropanecarbonyl)pyrrolidin-3-yl)methyl)-4,6-diazaspiro[2.4]hept-4-en-7-one]
0.0776	0.537	> 10	107	0.0269	7.27	~0.107	Cc1cc(-c2ccc3sccc3c2)ccc1C1=NC2(CC2)C(=O)N1CC1CN(C(=O)C2CC2)C1 [compound 288]
~1.17	~2.14	> 10	110	0.0794	6.48	~1.95	Cc1cc(-c2ccc3sc(C)c(C)c3c2)ccc1C1=NC2(CC2)C(=O)N1CC1CN(C(=O)C2CC2)C1 [compound 290, 6-((1-(cyclopropanecarbonyl)azetidin-3-yl)methyl)-5-(4-(2,3-dimethylbenzo[b]thiophen-5-yl)-2-methylphenyl)-4,6-diazaspiro[2.4]hept-4-en-7-one]
~0.0427	0.295	> 10	108	0.0275	7.42	0.0457	Cc1cc(-c2ccc3[nH]ccc3c2)ccc1C1=NC2(CC2)C(=O)N1CC1CN(C(=O)C2CC2)C1 [compound 291, 5-(4-(1H-indol-5-yl)-2-methylphenyl)-6-((1-(cyclopropanecarbonyl)azetidin-3-yl)methyl)-4,6-diazaspiro[2.4]hept-4-en-7-one]
0.178	0.692	> 10	100	0.0871	6.61	0.126	Cc1cc(-c2ccc3c(cnn3C)c2)ccc1C1=NC2(CC2)C(=O)N1CC1CN(C(=O)C2CC2)C1 [compound 292, 6-((1-(cyclopropanecarbonyl)azetidin-3-yl)methyl)-5-(2-methyl-4-(1-methyl-1H-indazol-5-yl)phenyl)-4,6-diazaspiro[2.4]hept-4-en-7-one]
~0.141	~0.513	> 10	105	0.038	6.76	0.0871	Cc1cc(-c2ccc3[nH]ncc3c2)ccc1C1=NC2(CC2)C(=O)N1CC1CN(C(=O)C2CC2)C1 [compound 293, 5-(4-(1H-indazol-5-yl)-2-methylphenyl)-6-((1-(cyclopropanecarbonyl)azetidin-3-yl)methyl)-4,6-diazaspiro[2.4]hept-4-en-7-one]
~0.575	1.29	> 10	100	0.0537	6.98	0.631	Cc1cc2cc(-c3ccc(C4=NC5(CC5)C(=O)N4C[C@@H]4CCN(C(=O)C5CC5)C4)cc3)ccc2s1 [compound 295, (R)-6-((1-(cyclopropanecarbonyl)pyrrolidin-3-yl)methyl)-5-(4-(2-methylbenzo[b]thiophen-5-yl)phenyl)-4,6-diazaspiro[2.4]hept-4-en-7-one]
0.0661	0.617	> 10	100	0.0219	7.57	0.0589	O=C(C1CC1)N1CC[C@@H](CN2C(=O)C3(CC3)N=C2c2ccc(-c3ccc4sccc4c3)cc2)C1 [compound 298, (R)-5-(4-(benzo[b]thiophen-5-yl)phenyl)-6-((1-(cyclopropanecarbonyl)pyrrolidin-3-yl)methyl)-4,6-diazaspiro[2.4]hept-4-en-7-one]
0.0389	0.234	> 10	101	0.0229	7.23	0.0309	O=C(C1CC1)N1CC(CN2C(=O)C3(CC3)N=C2c2ccc(-c3ccc4cc[nH]c4c3)cc2)C1 [compound 299, 5-(4-(1H-indol-6-yl)phenyl)-6-((1-(cyclopropanecarbonyl)azetidin-3-yl)methyl)-4,6-diazaspiro[2.4]hept-4-en-7-one]
0.123	1.91	> 10	102	0.0575	6.90	0.0741	O=C(C1CC1)N1CC(CN2C(=O)C3(CC3)N=C2c2ccc(-c3cccc4[nH]ncc34)cc2)C1 [compound 300, 5-(4-(1H-indazol-4-yl)phenyl)-6-((1-(cyclopropanecarbonyl)azetidin-3-yl)methyl)-4,6-diazaspiro[2.4]hept-4-en-7-one]
0.012	0.275	> 10	99	0.02	7.56	0.0148	O=C(C1CC1)N1CC[C@@H](CN2C(=O)C3(CC3)N=C2c2ccc(-c3ccc4cc[nH]c4c3)cc2)C1 [compound 301, (R)-5-(4-(1H-indol-6-yl)phenyl)-6-((1-(cyclopropanecarbonyl)pyrrolidin-3-yl)methyl)-4,6-diazaspiro[2.4]hept-4-en-7-one]
0.0398	~0.912	> 6.17	102	0.0309	7.16	0.0288	Cc1cc(-c2ccc3cc[nH]c3c2)ccc1C1=NC2(CC2)C(=O)N1CC1CN(C(=O)C2CC2)C1 [compound 303, 5-(4-(1H-indol-6-yl)-2-methylphenyl)-6-((1-(cyclopropancarbonyl)azetidin-3-yl)methyl)-4,6-diazaspiro[2.4]hept-4-en-7-one]
